In data set [1] the test system is Trypanosoma cruzi. Description: Antitrypanosomal activity against Trypanosoma cruzi CaI-72 trypomastigotes infected in mouse C2C12 cells measured after 72 hrs by DAPI staining based assay. In kind it is functional, organism-based. The settings on record: CaI-72, C2C12, 72 h.
Data set [2] can be described thus: Selectivity index, ratio of TC50 for mouse C2C12 cells to EC50 for antitrypanosomal activity against Trypanosoma cruzi CaI-72 trypomastigotes infected in mouse C2C12 cells. The class given is toxicity, cell-based.
For data set [3], the system named is Leishmania major. Description: Antileishmanial activity against Leishmania major amastigotes infected in mouse RAW 264.7 cells by luciferase reporter gene assay. In kind it is functional, organism-based. The settings on record: RAW264.7. (Reporter assays use an easily measured gene product as a stand-in for the process of interest.)
The subject of data set [4] is Plasmodium falciparum. Description: Antiplasmodial activity against Plasmodium falciparum D6 measured after 72 hrs by SYBR green fluorescence dye based microplate reader analysis. In kind it is functional, organism-based. The settings on record: D6, 72 h.
The nature of data set [5]: Selectivity index, ratio of TC50 for human HepG2 cells to EC50 for antiplasmodial activity against Plasmodium falciparum D6. The class given is toxicity.
Data set [6] concerns Leishmania donovani. As to the kind of experiment: Antileishmanial activity against Leishmania donovani infected in mouse B10R cells after 72 hrs by DAPI staining based assay. In kind it is functional, organism-based.
The nature of data set [7]: Selectivity index, ratio of TC50 for mouse B10R cells to EC50 for antileishmanial activity against Leishmania donovani infected in mouse B10R cells. The class given is toxicity, cell-based.
For data set [8], the system named is Leishmania donovani. As to the kind of experiment: Antileishmanial activity against Leishmania donovani promastigotes infected in BALB/c mouse assessed as effect on parasitemia at 50 mg/kg bid for 14 days and measured after 5 weeks post infection. In kind it is functional, organism-based.
Data set [9] is described as follows: Intrinsic clearance in human liver microsomes assessed as per mg protein. The class given is ADME, Microsome. Conditions: for microsomal CLint: liver microsomes, read-out: CLH. (Liver microsomes are a subcellular fraction often used to study metabolism.)
Data set [10] can be described thus: Intrinsic clearance in rat hepatocytes assessed as per million cells. The class given is ADME, cell-based, Hepatocyte. Conditions: read-out: CLH.
Data set [11] concerns Trypanosoma cruzi. As to the kind of experiment: Antitrypanosomal activity against Trypanosoma cruzi Tulahuen trypomastigotes infected in mouse NIH/3T3 cells measured after 96 hrs by beta-galactosidase reporter gene assay. In kind it is functional, organism-based. Conditions: NIH3T3, 96 h.
Data set [12] in a line: Aqueous solubility of compound at pH 7.4. In kind it is physicochemical.
Data set [13] deals with Trypanosoma cruzi. As to the kind of experiment: Antitrypanosomal activity against Trypanosoma cruzi Tulahuen amastigotes measured after 96 hrs by beta-galactosidase reporter gene assay. The class given is functional, organism-based.
The subject of data set [14] is Leishmania major. Description: Antileishmanial activity against Leishmania major. In kind it is functional, organism-based.
Data set [15] deals with Plasmodium falciparum. Description: Antiplasmodial activity against Plasmodium falciparum W2 after 72 hrs by SYBR Green fluorescence assay. Conditions: W2, 72 h. In kind it is functional, organism-based.
Data set [16] relates to Plasmodium falciparum. Description: Antiplasmodial activity against Plasmodium falciparum TM91C235 after 72 hrs by SYBR Green fluorescence assay. In kind it is functional, organism-based. The settings on record: TM91C235, 72 h.
Data set [17] can be described thus: Selectivity index, ratio of TC50 for human HepG2 cells to EC50 for antileishmanial activity against Leishmania major amastigotes infected in mouse RAW 264.7 cells. In kind it is toxicity, cell-based.
Data set [18] in a line: Protein binding in human plasma. The class given is ADME, cell-free. Conditions: read-out: PPB (converted).
Data set [19] is described as follows: Cytotoxicity against human HepG2 cells assessed as reduction in cell viability. The class given is cell-based. Conditions: read-out: TC50 (the source's name).
In data set [20] the test system is Plasmodium falciparum. Description: Antiplasmodial activity against chloroquine-sensitive mefloquine resistant Plasmodium falciparum D6. The class given is functional, organism-based.
Data set [21] in a line: Cytotoxicity against mouse C2C12 cells assessed as reduction in cell viability. In kind it is cell-based. The settings on record: read-out: TC50 (the source's name).
The mark [22] stands for this setting: aqueous solution, read-out: solubility.

Converted amounts (≈) assume the structure as drawn. The source made the active and inactive calls. No cut-off for these calls is given here.

With `CN1CCN(c2ncc(-c3ccc4c(Nc5ccc(OCc6cccc(F)c6)c(Cl)c5)ccnc4c3)cn2)CC1`, the concentration for a half-maximal effect (EC50) with Trypanosoma cruzi [1] was 30 nM; with Leishmania major [3], above 1500 nM; in the data set on Plasmodium falciparum [4], 18 nM; in the data set with Leishmania donovani [6], 23 nM. In addition, the selectivity ratio turned out to be 290 in data set [2], 167 in data set [5] and 1740 in [7]. For the same molecule, in the data set with Leishmania donovani [8], the result was inactive.

For the molecule `CN1CCCN(c2ncc(-c3ccc4/c(=N/c5cnccn5)ccn(C)c4c3)cn2)CC1`, the results for the EC50 with Trypanosoma cruzi [1], with Plasmodium falciparum [4] and with Leishmania donovani [6] were 10000 nM, 120 nM and 20 nM, respectively. Also, in data set [9] (microsomes), the CLH amounted to 22 µL/min. Moreover, the hepatocyte CLint in [10] worked out at 13 µL/min/1e6 cells. Also, the result in the data set on Leishmania donovani [8] was inactive.

As for `CN1CCN(c2ncc(-c3ccc4c(Nc5cnccn5)ccnc4c3)cn2)CC1`, the 50% effective concentration (EC50) in the data set with Trypanosoma cruzi [11] was 6000 nM; in the data set on Leishmania major [3], above 15000 nM; in the data set on Plasmodium falciparum [4] it was 26 nM; in the data set on Trypanosoma cruzi [13], 6000 nM; in the data set on Leishmania major [14] it was above 15000 nM; in the data set on Plasmodium falciparum [15] it was 62 nM. Further, the concentration giving a half-maximal response (EC50) with Plasmodium falciparum [16] is 37 nM. Further, in data set [12] (buffer), the solubility turned out to be […]. Also, the hepatocyte CLint in data set [10] turned out to be 127 µL/min/1e6 cells.

As to `CS(=O)(=O)N1CCN(c2ncc(-c3ccc4c(Nc5cnccn5)ccnc4c3)cn2)CC1`, the EC50 was 45000 nM with Trypanosoma cruzi [11], 730 nM with Leishmania major [3] and above 4300 nM in the data set with Plasmodium falciparum [4]. Also, the selectivity ratio in data set [17] was above 45. Also, the solubility in [12] (setting [22]) is 0.06 µM (≈ 0.0278 µg/mL). For the same molecule, the fraction unbound in [18] is 0.05. In addition, the microsomal CLint in [9] came to 44 µL/min/mg. The hepatocyte CLint in data set [10] turned out to be 28 µL/min/1e6 cells. Moreover, in data set [19], the CC50 is above 33000 nM.

As to `CS(=O)(=O)CCNCc1ccc(-c2ccc3ncnc(Nc4ccc(OCc5cccc(F)c5)c(Cl)c4)c3c2)o1` [LAPATINIB], the 50% effective concentration (EC50) was 530 nM with Plasmodium falciparum [20], 1500 nM in the data set on Trypanosoma cruzi [13] and above 15000 nM in the data set on Leishmania major [14].

On to `CN1CCCN(c2ccc(-c3ccc4c(Nc5cnccn5)ccnc4c3)cc2)CC1`, for which the values for the concentration giving a half-maximal response (EC50) with Trypanosoma cruzi [1], with Leishmania major [3] and in the data set with Plasmodium falciparum [4] were 370 nM, 5500 nM and 10 nM, respectively. Moreover, the selectivity ratio in [2] was 1; in [17], 1.7; in data set [5], 960. The solubility in data set [12] (setting [22]) amounted to 4.1 µM (≈ 1.68 µg/mL).

Turning to `CN1CCCN(c2ncc(-c3ccc4c(Nc5ccc(OC(F)(F)F)cc5)ccnc4c3)cn2)CC1`, the EC50 with Trypanosoma cruzi [1] turned out to be 60 nM; in the data set with Leishmania major [3], 8200 nM; in the data set with Plasmodium falciparum [4] it was 6 nM; in the data set with Leishmania donovani [6], 85 nM. Besides, the selectivity ratio turned out to be 38 in [2], 0.8 in [17], 233 in [5] and 7.8 in data set [7].

Consider `Cc1ccc2[nH]c3c4ccc(-c5cnc(N6CCCN(C)CC6)nc5)cc4ncc3c2c1`, for which the EC50 in the data set on Trypanosoma cruzi [1] stood at 210 nM; with Leishmania major [3], 440 nM; in the data set with Plasmodium falciparum [4] it was 37 nM; in the data set with Leishmania donovani [6] it was 640 nM. Further, the selectivity ratio came to 2.4 in data set [2], 10 in data set [17], 127 in data set [5] and 3.6 in data set [7].

In the case of `O=S(=O)(c1ccc(-c2ccc3nccc(N[C@@H]4CCCC[C@H]4O)c3c2)cc1)N1CCOCC1`, the concentration giving a half-maximal response (EC50) in the data set with Trypanosoma cruzi [1] is 330 nM; with Leishmania major [3] it was above 22000 nM; in the data set with Plasmodium falciparum [4], 400 nM. Besides, the selectivity ratio in [2] was above 30; in [5], above 80. For the same molecule, in [12] (setting [22]), the solubility worked out at 137 µM (≈ 64.1 µg/mL). In data set [18], the fraction unbound is 0.28. Further, the microsomal CLint in [9] came to 43 µL/min/mg. In addition, the hepatocyte CLint in data set [10] worked out at 30 µL/min/1e6 cells. In addition, the CC50 in data set [21] was above 10000 nM.

A word on the EC50: it is the concentration giving half of the maximal effect. A low value points to a more potent agent. The solubility is how much of the substance goes into solution per volume.

For the origin of these results see ChEMBL document CHEMBL4342474, “Scaffold and Parasite Hopping: Discovery of New Protozoal Proliferation Inhibitors” (ACS Med Chem Lett, 2020).
